The compounds below were run against T1, full-length human PKCι (Homo sapiens, UniProt P41743) (assay: PKCι IC50 IMAP fluorescence polarisation assay, full-length enzyme). Conditions: full length PKCi at 15 μM ATP; read-out: IC50 in IMAP assay against full length PKCi.
T1 construct: Recombinant, full-length human PKCι expressed in Sf21 insect cells is also commercially available; purchased; host or cells: Sf21 insect cells
T1 sequence (P41743 1-596): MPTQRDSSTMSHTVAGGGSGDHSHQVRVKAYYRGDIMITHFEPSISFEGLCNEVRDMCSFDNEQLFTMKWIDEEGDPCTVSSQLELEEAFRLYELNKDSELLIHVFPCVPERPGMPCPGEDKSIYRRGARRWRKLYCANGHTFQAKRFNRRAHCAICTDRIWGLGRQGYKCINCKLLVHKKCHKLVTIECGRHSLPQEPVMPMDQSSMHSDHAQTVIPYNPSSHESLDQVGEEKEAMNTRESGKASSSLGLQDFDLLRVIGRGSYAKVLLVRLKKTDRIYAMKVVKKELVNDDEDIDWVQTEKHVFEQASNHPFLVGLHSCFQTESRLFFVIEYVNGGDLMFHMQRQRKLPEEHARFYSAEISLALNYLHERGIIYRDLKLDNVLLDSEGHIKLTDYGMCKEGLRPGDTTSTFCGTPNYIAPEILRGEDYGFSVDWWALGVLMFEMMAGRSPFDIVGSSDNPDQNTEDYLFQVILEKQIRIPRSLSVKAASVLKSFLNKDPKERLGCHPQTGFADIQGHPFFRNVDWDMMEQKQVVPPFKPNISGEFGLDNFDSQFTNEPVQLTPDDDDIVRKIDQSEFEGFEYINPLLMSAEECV
Type: biochemical

Row | IC50 [µM] | Compound
1 | 0.1 to 1 | Cc1ccsc1-c1csc2c(NC[C@@H](N)Cc3ccccc3)nc(-c3ccncc3)nc12 [compound 396, (S)-N*1*-[7-(3-Methyl-thiophen-2-yl)-2-pyridin-4-yl-thieno[3,2-d]pyrimidin-4-yl]-3-phenyl-propane-1,2-diamine]
2 | 10 to 40 | COc1ccc(C(F)(F)F)cc1-c1c(C)sc2c(NC[C@@H](N)Cc3ccccc3)nc(-c3ccncc3)nc12 [compound 464, (S)-N*1*-[7-(2-Methoxy-5-trifluoromethyl-phenyl)-6-methyl-2-pyridin-4-yl-thieno[3,2-d]pyrimidin-4-yl]-3-phenyl-propane-1,2-diamine]
3 | 1 to 10 | N[C@H](CNc1nc(-c2ccncc2)nc2c(CCC3CC3)csc12)Cc1ccccc1 [compound 563, (S)—N*1*-[7-(2-Cyclopropyl-ethyl)-2-pyridin-4-yl-thieno[3,2-d]pyrimidin-4-yl]-3-phenyl-propane-1,2-diamine]
4 | 0.1 to 1 | CNCC#Cc1csc2c(NC[C@@H](N)Cc3ccccc3)nc(-c3ccncc3)nc12 [compound 538, (S)-N*1*-[7-(3-Methylamino-prop-1-ynyl)-2-pyridin-4-yl-thieno[3,2-d]pyrimidin-4-yl]-3-phenyl-propane-1,2-diamine]
5 | 10 to 40 | Cc1ccc(OC(C)C)c(-c2c(C)sc3c(NC[C@@H](N)Cc4ccccc4)nc(-c4ccncc4)nc23)c1 [compound 458, (S)-N*1*-[7-(2-Isopropoxy-5-methyl-phenyl)-6-methyl-2-pyridin-4-yl-thieno[3,2-d]pyrimidin-4-yl]-3-phenyl-propane-1,2-diamine]
6 | 0.1 to 1 | N[C@H](CNc1nc(-c2ccncc2)nc2c(-n3ccnn3)csc12)Cc1ccccc1 [compound 562, (S)-3-Phenyl-N*1*-(2-pyridin-4-yl-7-[1,2,3]triazol-1-yl-thieno[3,2-d]pyrimidin-4-yl)-propane-1,2-diamine]
7 | 0.1 to 1 | N[C@H](CNc1nc(-c2ccncc2)nc2ccsc12)Cc1ccccc1 [compound 314, (S)-3-Phenyl-N*1*-(2-pyridin-4-yl-thieno[3,2-d]pyrimidin-4-yl)-propane-1,2-diamine]
8 | < 0.1 | CC(O)C#Cc1csc2c(NC[C@@H](N)Cc3ccccc3)nc(-c3ccncc3)nc12 (stereo partly drawn) [compound 513, 4-[4-((S)-2-Amino-3-phenyl-propylamino)-2-pyridin-4-yl-thieno[3,2-d]pyrimidin-7-yl]-but-3-yn-2-ol]
9 | 1 to 10 | Cc1noc(C)c1-c1csc2c(NCC(N)Cc3ccccc3)nc(-c3ccncc3F)nc12 (stereo in doubt) [compound 428, (R)-N*1*-[7-(3,5-Dimethyl-isoxazol-4-yl)-2-(3-fluoro-pyridin-4-yl)-thieno[3,2-d]pyrimidin-4-yl]-3-phenyl-propane-1,2-diamine]
10 | 1 to 10 | CC(C)(C)c1sc2c(NC[C@@H](N)Cc3ccccc3)nc(-c3ccncc3)nc2c1-c1cn[nH]c1 [compound 437, (S)-N*1*-[6-tert-Butyl-7-(1H-pyrazol-4-yl)-2-pyridin-4-yl-thieno[3,2-d]pyrimidin-4-yl]-3-phenyl-propane-1,2-diamine]

More lines, now with the values behind:

Row | Compound | IC50 [µM]
11 | c1cc(-c2nc(N[C@@H]3CCNC3)c3sccc3n2)cc(Nc2ccc(N3CCCCC3)cc2)n1 [compound 608, {2-[2-(4-Piperidin-1-yl-phenylamino)-pyridin-4-yl]-thieno[3,2-d]pyrimidin-4-yl}-(R)-pyrrolidin-3-yl-amine] | 0.1 to 1
12 | O=C(Nc1cc(-c2nc(N[C@H]3CNC[C@@H]3O)c3sccc3n2)ccn1)c1cccs1 [compound 627, Thiophene-2-carboxylic acid {4-[4-((3S,4S)-4-hydroxy-pyrrolidin-3-ylamino)-thieno[3,2-d]pyrimidin-2-yl]-pyridin 2-yl}-amide] | 1 to 10
13 | COc1cccc(OCC(C)C)c1-c1c(C)sc2c(NC[C@@H](N)Cc3ccccc3)nc(-c3ccncc3)nc12 [compound 455, (S)-N*1*-[7-(2-Isobutoxy-6-methoxy-phenyl)-6-methyl-2-pyridin-4-yl-thieno[3,2-d]pyrimidin-4-yl]-3-phenyl-propane-1,2-diamine] | 10 to 40
14 | O=C(Nc1cc(-c2nc(N[C@@H]3CCNC3)c3sccc3n2)ccn1)c1ccco1 [compound 574, Furan-2-carboxylic acid {4-[4-((R)-pyrrolidin-3-ylamino)-thieno[3,2-d]pyrimidin-2-yl]-pyridin-2-yl}-amide] | 1 to 10
15 | CN(C)C(=O)Nc1cc(-c2nc(N[C@@H]3CCNC3)c3sccc3n2)ccn1 [compound 581, 1,1-Dimethyl-3-{4-[4-((R)-pyrrolidin-3-ylamino)-thieno[3,2-d]pyrimidin-2-yl]-pyridin-2-yl}-urea] | 1 to 10
16 | CS(=O)(=O)Nc1cc(-c2nc(N[C@@H]3CCNC3)c3sccc3n2)ccn1 [compound 624, N-{4-[4-((R)-Pyrrolidin-3-ylamino)-thieno[3,2-d]pyrimidin-2-yl]-pyridin-2-yl}-methanesulfonamide] | 10 to 40
17 | C#Cc1sc2c(N[C@@H]3CCNC3)nc(-c3ccncc3)nc2c1C [compound 543, (6-Ethynyl-7-methyl-2-pyridin-4-yl-thieno[3,2-d]pyrimidin-4-yl)-(R)-pyrrolidin-3-yl-amine] | 1 to 10
18 | O[C@@H](CNc1cc(-c2nc(N[C@@H]3CCNC3)c3sccc3n2)ccn1)c1ccccc1 [compound 593, (R)-1-Phenyl-2-{4-[4-((R)-pyrrolidin-3-ylamino)-thieno[3,2-d]pyrimidin-2-yl]-pyridin-2-ylamino}-ethanol] | 1 to 10
19 | Cc1cc(Nc2csc3c(N[C@@H]4CCNC4)nc(-c4ccncc4F)nc23)no1 [compound 496, 2-(3-Fluoro-pyridin-4-yl)-N*7*-(5-methyl-isoxazol-3-yl)-N*4*-(R)-pyrrolidin-3-yl-thieno[3,2-d]pyrimidine-4,7-diamine] | 10 to 40
20 | Brc1csc2c(NC[C@H]3CCCN3)nc(-c3ccncc3)nc12 [compound 342, (7-Bromo-2-pyridin-4-yl-thieno[3,2-d]pyrimidin-4-yl)-(R)-1-pyrrolidin-2-ylmethyl-amine] | 10 to 40
21 | CC(C)(C)[Si](C)(C)C#Cc1csc2c(NC[C@@H](N)Cc3ccccc3)nc(-c3ccncc3)nc12 [compound 399, (S)-N*1*-{7-[(tert-Butyl-dimethyl-silanyl)-ethynyl]-2-pyridin-4-yl-thieno[3,2-d]pyrimidin-4-yl}-3-phenyl-propane-1,2-diamine] | 1 to 10
22 | c1cc(-c2nc(N[C@@H]3CCNC3)c3sccc3n2)cc(NC2CCCCC2)n1 [compound 623, [2-(2-Cyclohexylamino-pyridin-4-yl)-thieno[3,2-d]pyrimidin-4-yl]-(R)-pyrrolidin-3-yl-amine] | 10 to 40
23 | CNC(=O)Nc1cc(-c2nc(N[C@@H]3CCNC3)c3sccc3n2)ccn1 [compound 583, 1-Methyl-3-{4-[4-((R)-pyrrolidin-3-ylamino)-thieno[3,2-d]pyrimidin-2-yl]-pyridin-2-yl}-urea] | 1 to 10
24 | C[C@H](N)CNc1nc(-c2ccncc2F)nc2ccsc12 [compound 353, (S)-N*1*-[2-(3-Fluoro-pyridin-4-yl)-thieno[3,2-d]pyrimidin-4-yl]-propane-1,2-diamine] | 10 to 40
25 | F[C@@H]1CNC[C@@H]1Nc1nc(-c2ccncc2)nc2ccsc12 [compound 321, ((3S,4R)-4-Fluoro-pyrrolidin-3-yl)-(2-pyridin-4-yl-thieno[3,2-d]pyrimidin-4-yl)-amine] | 10 to 40
26 | CN1CCN(C(=O)c2ccc(Nc3cc(-c4nc(N[C@@H]5CCNC5)c5sccc5n4)ccn3)cc2)CC1 [compound 613, (4-Methyl-piperazin-1-yl)-(4-{4-[4-((R)-pyrrolidin-3-ylamino)-thieno[3,2-d]pyrimidin-2-yl]-pyridin-2-ylamino}-phenyl)-methanone] | 0.1 to 1

Same assay, conditions: full length PKCi at 15 μM ATP; read-out: IC50 in IMAP assay against full length PKCi (Activity)

Row | IC50 [µM] | Compound
27 | 0.1 to 1 | N[C@H](CNc1nc(-c2ccncc2)nc2sc3c(c12)CCCC3)Cc1cscn1 [compound 59, (S)-N*1*-(2-Pyridin-4-yl-5,6,7,8-tetrahydro-benzo[4,5]thieno[2,3-d]pyrimidin-4-yl)-3-thiazol-4-yl-propane-1,2-diamine]
28 | 10 to 40 | N[C@@H](CNc1nc(-c2ccncc2)nc2sc3c(c12)CCOC3)Cc1ccccc1 [compound 83, (R)-3-Phenyl-N*1*-(2-pyridin-4-yl-5,8-dihydro-6H-pyrano[4′,3′:4,5]thieno[2,3-d]pyrimidin-4-yl)-propane-1,2-diamine]
29 | 10 to 40 | COc1ccccc1C[C@H](N)CNc1nc(-c2ccncc2)nc2sc3c(c12)CCSC3 [compound 64, (S)-3-(2-Methoxy-phenyl)-N*1*-(2-pyridin-4-yl-5,8-dihydro-6H-thio-pyrano[4′,3′:4,5]thieno[2,3-d]pyrimidin-4-yl)-propane-1,2-diamine]
30 | 1 to 10 | N[C@@H](CNc1nc(-c2ccncc2)nc2sc3c(c12)CCN(C(=O)c1ccccc1)C3)Cc1ccccc1 [compound 73, [4-((R)-2-Amino-3-phenyl-propylamino)-2-pyridin-4-yl-5,8-dihydro-6H-pyrido[4′,3′:4,5]thieno[2,3-d]pyrimidin-7-yl]-phenyl-methanone]
31 | 10 to 40 | COc1cnccc1-c1nc(NC[C@@H](N)Cc2ccccc2)c2c3c(sc2n1)CCCC3 [compound 102, (S)—N*1*-[2-(3-methoxy-pyridin-4-yl)-5,6,7,8-tetrahydro-benzo[4,5]thieno[2,3-d]pyrimidin-4-yl]-3-phenyl-propane-1,2-diamine]

Reference: US10183950B2, “Thienopyrimidine inhibitors of atypical protein kinase C” (Cancer Research Technology Limited, priority 2011, dated 2019)
